Measured values: patent US20240025906A1 (NEURON23, INC., priority 2022, published 2024)
Structures can show the parent of a compound that is named as a salt.

Tests used:
TYK2 JH2 = target: T1, TYK2 JH2 (Homo sapiens, UniProt P29597); experiment: TYK2 JH2 binding assay (KINOMEscan KdELECT competitive binding); details: TYK2 JH2 domain, KINOMEscan KdELECT (Assay A); read-out: Biochemical TYK2_DiscoverX_JH2_BND_Kd
T1 construct: purchased DiscoverX (KINOMEscan KdELECT service); host or cells: E. coli BL21-derived (T7 phage display) or HEK-293
T1 sequence (P29597 589-875 limits assumed): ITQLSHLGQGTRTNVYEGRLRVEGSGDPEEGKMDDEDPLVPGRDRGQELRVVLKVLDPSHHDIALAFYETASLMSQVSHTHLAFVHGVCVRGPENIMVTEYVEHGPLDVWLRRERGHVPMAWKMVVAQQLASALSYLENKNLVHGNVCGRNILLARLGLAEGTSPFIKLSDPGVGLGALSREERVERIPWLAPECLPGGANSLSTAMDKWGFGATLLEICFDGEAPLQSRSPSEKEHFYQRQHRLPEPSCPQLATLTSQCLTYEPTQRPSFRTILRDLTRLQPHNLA
Procedure, shortened: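 Competition binding, KdELECT format. Kinase (phage-tagged, E. coli BL21-derived host; or HEK-293, DNA-tagged) + ligand-coated streptavidin beads + cpd, 1 h RT, final DMSO 0.9%. Wash, elute 30 min with 0.5 μM non-biotinylated ligand; qPCR readout. Kd: 11-pt, 3-fold series.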

[1] = test system: JAK1/TYK2 pSTAT5 (Tyr694/699) in THP-1 cell line; experiment: IFNa-stimulated JAK1/TYK2 pSTAT5 (Tyr694/699) inhibition cellular assay, AlphaLISA; assay type: cell-based; details: Homo sapiens; THP-1 cells, IFNa-stimulated, AlphaLISA (Assay B); read-out: Cellular_THP1_IFNa-pSTATS_TYK2
Procedure, shortened: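 pSTAT5 (Tyr694/699) in lysates quantified by AlphaLISA (615 nm) after 30 min IFNa stimulation (100 ng/mL stock) of THP-1 cells. The cells, 2e4 per well in HBSS, had first been exposed 1 h at 37° C. to eight 6-fold compound dilutions, 10000 down to 0.04 nM final. IC50 fitted by 4PL regression, bottom 0, Hill slope −1.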

| Compound | Kd (TYK2 JH2) [nM] | IC50 [1] [nM] |
| --- | --- | --- |
| CNc1ncc(C23CC(c4ccncc4)(C2)C3)c2cc(NC(=O)C3CC3)ncc12 [Example 845, N-(8-(methylamino)-5-(3-(pyridin-4-yl)bicyclo[1.1.1]pentan-1-yl)-2,7-naphthyridin-3-yl)cyclopropanecarboxamide] | ≤ 100 | > 500 |
| CCNc1ncc(-c2ccccc2)c2cc(NC(=O)C3CC3)ncc12 [Example 846, N-(8-(ethylamino)-5-phenyl-2,7-naphthyridin-3-yl)cyclopropanecarboxamide] | ≤ 100 | > 500 |
| CNc1ncc(-c2ccc(-c3c(C)cnn3C)cc2)c2cc(NC(=O)C3CC3)ncc12 [Example 847, N-(5-(4-(1,4-dimethyl-1H-pyrazol-5-yl)phenyl)-8-(methylamino)-2,7-naphthyridin-3-yl)cyclopropanecarboxamide] | ≤ 100 | ≤ 500 |
| CNc1ncc(CCc2ccc(OC(F)(F)F)cc2)c2cc(NC(=O)C3CC3)ncc12 [Example 848, N-(8-(methylamino)-5-(4-(trifluoromethoxy)phenethyl)-2,7-naphthyridin-3-yl)cyclopropanecarboxamide] | ≤ 100 | > 500 |
| CNc1ncc(C2=CCc3ccccc3O2)c2cc(NC(=O)C3CC3)ncc12 [Example 849, N-(5-(4H-chromen-2-yl)-8-(methylamino)-2,7-naphthyridin-3-yl)cyclopropanecarboxamide] | ≤ 100 | > 500 |
| CNc1ncc(C2=Cc3ccccc3CO2)c2cc(NC(=O)C3CC3)ncc12 [Example 850, N-(5-(1H-isochromen-3-yl)-8-(methylamino)-2,7-naphthyridin-3-yl)cyclopropanecarboxamide] | ≤ 100 | ≤ 500 |
| CNc1ncc(-c2ccc(-c3cnn(C)n3)cc2)c2cc(NC(=O)C3CC3)ncc12 [Example 851, N-(5-(4-(2-methyl-2H-1,2,3-triazol-4-yl)phenyl)-8-(methylamino)-2,7-naphthyridin-3-yl)cyclopropanecarboxamide] | ≤ 100 | ≤ 500 |
| CNc1ncc(-c2ccn(CCOC)n2)c2cc(NC(=O)C3CC3)ncc12 [Example 852, N-(5-(1-(2-methoxyethyl)-1H-pyrazol-3-yl)-8-(methylamino)-2,7-naphthyridin-3-yl)cyclopropanecarboxamide] | ≤ 100 | > 500 |
| CNc1ncc(-c2nc3n(n2)CCC3)c2cc(NC(=O)C3CC3)ncc12 [Example 853, N-(5-(6,7-dihydro-5H-pyrrolo[1,2-b][1,2,4]triazol-2-yl)-8-(methylamino)-2,7-naphthyridin-3-yl)cyclopropanecarboxamide formate] | ≤ 100 | > 500 |
| CNc1ncc(-c2nc3c(o2)CCC(C(F)(F)F)C3)c2cc(NC(=O)C3CC3)ncc12 (stereo not drawn) [Example 855, N-(8-(methylamino)-5-(5-(trifluoromethyl)-4,5,6,7-tetrahydrobenzo[d]oxazol-2-yl)-2,7-naphthyridin-3-yl)cyclopropanecarboxamide] | ≤ 100 | > 500 |
| CNc1ncc(-c2ccc(Oc3cncs3)cc2)c2cc(NC(=O)C3CC3)ncc12 [Example 857, N-(8-(methylamino)-5-(4-(thiazol-5-yloxy)phenyl)-2,7-naphthyridin-3-yl)cyclopropanecarboxamide] | ≤ 100 | ≤ 500 |
| CNc1ncc(-c2ccc(Oc3ccncc3)cc2)c2cc(NC(=O)C3CC3)ncc12 [Example 858, N-(8-(methylamino)-5-(4-(pyridin-4-yloxy)phenyl)-2,7-naphthyridin-3-yl)cyclopropanecarboxamide] | ≤ 100 | ≤ 500 |
| CNc1ncc(-c2ccc(OCCOC)cc2)c2cc(NC(=O)C3CC3)ncc12 [Example 859, N-(5-(4-(2-methoxyethoxy)phenyl)-8-(methylamino)-2,7-naphthyridin-3-yl)cyclopropanecarboxamide] | ≤ 100 | ≤ 500 |
| CNc1ncc(-c2ccc(N3CCC3CC#N)cc2)c2cc(NC(=O)C3CC3)ncc12 (stereo not drawn) [Example 860, N-(5-(4-(2-(cyanomethyl)azetidin-1-yl)phenyl)-8-(methylamino)-2,7-naphthyridin-3-yl)cyclopropanecarboxamide] | ≤ 100 | > 500 |
| CNc1ncc(-c2ccc(O)cc2)c2cc(NC(=O)C3CC3)ncc12 [Example 861, N-(5-(4-hydroxyphenyl)-8-(methylamino)-2,7-naphthyridin-3-yl)cyclopropanecarboxamide] | ≤ 100 | ≤ 500 |
| CNc1ncc(-c2ccc(Oc3ccnc(C)c3)cc2)c2cc(NC(=O)C3CC3)ncc12 [Example 862, N-(8-(methylamino)-5-(4-((2-methylpyridin-4-yl)oxy)phenyl)-2,7-naphthyridin-3-yl)cyclopropanecarboxamide] | ≤ 100 | ≤ 500 |
| CNc1ncc(-c2ccc(Oc3ccccn3)cc2)c2cc(NC(=O)C3CC3)ncc12 [Example 863, N-(8-(methylamino)-5-(4-(pyridin-2-yloxy)phenyl)-2,7-naphthyridin-3-yl)cyclopropanecarboxamide] | ≤ 100 | ≤ 500 |
| CNc1ncc(-c2ccc(Oc3cccnc3)cc2)c2cc(NC(=O)C3CC3)ncc12 [Example 864, N-(8-(methylamino)-5-(4-(pyridin-3-yloxy)phenyl)-2,7-naphthyridin-3-yl)cyclopropanecarboxamide] | ≤ 100 | ≤ 500 |
| CNc1ncc(-c2ccc(Oc3ncn(C)n3)cc2)c2cc(NC(=O)C3CC3)ncc12 [Example 865, N-(5-(4-((1-methyl-1H-1,2,4-triazol-3-yl)oxy)phenyl)-8-(methylamino)-2,7-naphthyridin-3-yl)cyclopropanecarboxamide] | ≤ 100 | ≤ 500 |
| CNc1ncc(CCc2ccc3nnn(C)c3c2)c2cc(NC(=O)C3CC3)ncc12 [Example 866, N-(5-(2-(1-methyl-1H-benzo[d][1,2,3]triazol-6-yl)ethyl)-8-(methylamino)-2,7-naphthyridin-3-yl)cyclopropanecarboxamide] | ≤ 100 | ≤ 500 |
| CNc1ncc(-c2ccc(OCc3ccncc3)cc2)c2cc(NC(=O)C3CC3)ncc12 [Example 867, N-(8-(methylamino)-5-(4-(pyridin-4-ylmethoxy)phenyl)-2,7-naphthyridin-3-yl)cyclopropanecarboxamide] | ≤ 100 | ≤ 500 |
| CNc1ncc(-c2ccc(COc3ccncc3)cc2)c2cc(NC(=O)C3CC3)ncc12 [Example 868, N-(8-(methylamino)-5-(4-((pyridin-4-yloxy)methyl)phenyl)-2,7-naphthyridin-3-yl)cyclopropanecarboxamide] | ≤ 100 | ≤ 500 |
| CNc1ncc(-c2ccc(Cn3ccc(=O)cc3)cc2)c2cc(NC(=O)C3CC3)ncc12 [Example 869, N-(8-(methylamino)-5-(4-((4-oxopyridin-1(4H)-yl)methyl)phenyl)-2,7-naphthyridin-3-yl)cyclopropanecarboxamide] | ≤ 100 | > 500 |
| CNc1ncc(-c2ccc(-c3cnnn3C)cc2)c2cc(NC(=O)C3CC3)ncc12 [Example 870, N-(5-(4-(1-methyl-1H-1,2,3-triazol-5-yl)phenyl)-8-(methylamino)-2,7-naphthyridin-3-yl)cyclopropanecarboxamide] | ≤ 100 | ≤ 500 |
